In patent US5892064A, “Chemiluminescent dialkyl-substituted 1,2-dioxetanes, methods of synthesis and use” (Lumigen, Inc., priority 1997, dated 1999):

What was measured:
[1] = literature, cited from earlier work
[2] = Thermal and hydrolytic stability of dioxetane in aqueous buffer solution; type: physicochemical; settings: 0.33 mM, 1 mg/mL Enhancer A, 0.2M buffer pH 9.6, 37° C. versus room temperature, 5 days
Description: The thermal and hydrolytic stability of a 0.33 mM solution of dioxetane 2f containing 1 mg/mL of Enhancer A in 0.2M 2-amino-2-methyl-1-propanol buffer, pH 9.6 and 0.88 mM Mg^+2 was determined at 37° C. Solutions of the dioxetane were maintained at room temperature and 37° C. for 5 days. To each of 12 wells in a 96-well microplate was added 100 μL of each solution. The plate was incubated at 37° C. and chemiluminescence emission initiated by addition of 10 μL of solutions containing 1.1×10^-15 mol of AP. Light intensities were integrated for 2.5 hours. Stability of the dioxetane was assessed by comparing the average light yield of the sample incubated at 37° C. to the solution held at room temperature. A decrease in the amount of light emitted indicates decomposition of the dioxetane during the incubation period.

[3] = Thermal stability of dioxetanes: first order decay of chemiluminescence of dilute solutions in xylene at several temperatures; type: physicochemical; settings: for Ea: activation energy for thermal decomposition; for Ea / log A: dilute solutions in xylene; for t1/2: thermal decomposition (Table 4; temperature not given); for t1/2 25° C. / log A: thermal decomposition
Description: (§1) Chemiluminescence intensities and rate measurements were performed using either a Turner Designs (Sunnyvale, Calif.) model TD-20e luminometer or a luminometer built in house (Black Box) which uses a photon counting photomultiplier. Temperature control of samples analyzed in the luminometers was achieved by means of a circulating bath connected to the instrument. Quantitative measurement of light intensities on the Turner luminometer was extended beyond the 10^4 linear range of the detector by a neutral density filter. Data collection was controlled by an Apple MacIntosh SE/30 computer using the LUMISOFT data reduction program (Lumigen, Inc., Southfield, Mich.).
Activation energies for thermal decomposition of dioxetanes 2c, h and i were determined by measuring the first order rate constant k for decay of chemiluminescence of dilute solutions in xylene at several temperatures.

[4] = Fluoride-triggered (TBAF) chemiluminescent decomposition of dioxetanes in DMSO; type: physicochemical; settings: for rates of fluoride-triggered decomposition compared / t1/2 trig.: 10 μL of 10^-6 M dioxetane with 50 μL of 1M TBAF in DMSO; for Rate acceleration: fluoride-triggered versus thermal decomposition; for t1/2: [F-] 1M, DMSO
Description: as §1
Stock solutions of dioxetanes 2c, 2e, 2g and for comparison, 4-(3-t-butyldimethylsilyloxyphenyl)-4-methoxyspiro [1,2-dioxetane-3,2'-tricyclo[3.3.1.1^3,7 ]decane] (2j), (preparation described in U.S. Pat. No. 4,962,192) were made to a concentration of 10^-6 M in DMSO. Serial dilutions in DMSO were made as required. Ten μL aliquots were triggered in 7×50 mm polypropylene tubes in a Turner Designs TD-20e luminometer by injection of 50 μL of a solution of tetra-n-butylammonium fluoride (TBAF) in DMSO (1M-10^-4 M) in the appropriate solvent, typically DMSO. Light intensity was attenuated when needed by a neutral density filter. All experiments were conducted at ambient temperature. Peak light intensity and decay rate diminished as the fluoride concentration was decreased. At the lowest concentration of fluoride, decay kinetics were not cleanly first order.
The half lives for decay were essentially independent of dioxetane concentration.
The rates of fluoride-triggered decomposition of dioxetanes 2c, h, i and j were compared in DMSO under identical conditions, i.e. 10 μL aliquot of a 10^-6 M solution of dioxetane with 50 μL of 1M TBAF in DMSO. […]

| Compound | half life (t1/2) at 25° C. ([1]; 25° C.) | activation energy for decomposition [1] [kJ/mol] | thermal and hydrolytic stability in aqueous solution [2] | Ea [3] [kJ/mol] | t1/2 [3] [yr] | t1/2 25° C. [3] [yr] | log A [3] | rates of fluoride-triggered decomposition compared [4] | t1/2 trig. [4] [s] | Rate acceleration [4] | t1/2 ([4]; [Dioxetane 2h] 10^-6 M) [s] | t1/2 ([4]; [Dioxetane 2h] 10^-7 M) [s] | t1/2 ([4]; [Dioxetane 2h] 10^-8 M) [s] | t1/2 ([4]; [Dioxetane 2h] 10^-9 M) [s] |
| --- | --- | --- | --- | --- | --- | --- | --- | --- | --- | --- | --- | --- | --- | --- |
| C1C2CC3CC1CC(C2)C31OOC12C1CC3CC(C1)CC2C3 (centres unmarked) | several years | 155 | – | – | – | – | – | – | – | – | – | – | – | – |
| COC1(c2cccc(OP(=O)(O)O)c2)OOC1(C(C)C)C(C)C (centres unmarked) [Dioxetane 2f] | – | – | stable under these conditions | – | – | – | – | – | – | – | – | – | – | – |
| COC1(c2cccc(OC(C)=O)c2)OOC1(C(C)C)C(C)C (centres unmarked) [Dioxetane 2c] | – | – | – | 118 | 1.2 | 1.2 | 12.85 | essentially the same rate | 7 | 5.5 × 10^6 | – | – | – | – |
| COC1(c2cccc(O[Si](C)(C)C(C)(C)C)c2)OOC1(C1CCCCC1)C1CCCCC1 (centres unmarked) [Dioxetane 2h] | – | – | – | 123 | 1.7 | 1.7 | 13.7 | essentially the same rate | 7 | 7.0 × 10^6 | 7.2 | 6.2 | 6.2 | 6.7 |
| COC1(c2cccc(O[Si](C)(C)C(C)(C)C)c2)OOC12C1CC3CC(C1)CC2C3 (centres unmarked) [Dioxetane 2j] | – | – | – | – | 3.8 | – | – | essentially the same rate | 7 | 1.4 × 10^7 | – | – | – | – |
| COC1(c2cccc(O)c2)OOC1(C1CCCCC1)C1CCCCC1 (centres unmarked) [Dioxetane 2i] | – | – | – | 119 | 1.1 | 1.1 | 13.2 | essentially the same rate | 6 | 5.7 × 10^6 | – | – | – | – |
